Columns and labels:
[1] = DRUGMATRIX: GABAA, Flunitrazepam, Central radioligand binding (ligand: [3H] Flunitrazepam); type: cell membranes, Rattus norvegicus, Wistar, Brain, Membrane; settings: Not Active = under 50% inhibition at 10 µM
[2] = biological target: T1, Neutrophil elastase (Homo sapiens, UniProt P08246); type: tissue-based;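 also: inhibition of neutrophil elastase enzyme activity, measured with a p-nitroanilide-linked peptide substrate; in other assays of this panel Not Active means under 50% inhibition at 10 µM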
T1 sequence (P08246 whole entry): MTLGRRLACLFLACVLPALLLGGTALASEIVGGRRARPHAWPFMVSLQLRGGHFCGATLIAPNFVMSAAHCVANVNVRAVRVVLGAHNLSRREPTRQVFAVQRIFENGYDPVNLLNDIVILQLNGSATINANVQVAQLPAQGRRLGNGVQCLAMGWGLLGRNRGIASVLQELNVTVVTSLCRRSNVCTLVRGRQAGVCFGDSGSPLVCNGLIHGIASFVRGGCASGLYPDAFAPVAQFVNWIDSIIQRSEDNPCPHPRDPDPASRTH

[3] = biological target: Beta-3 adrenergic receptor (Homo sapiens, UniProt P13945); assay: DRUGMATRIX: Adrenergic beta3 radioligand binding (ligand: [125I] Cyanopindolol); type: cell membranes, HEK293, Membrane; settings: hek293; Not Active = under 50% inhibition at 10 µM
[4] = biological target: T2, Endothelin-1 receptor (Homo sapiens, UniProt P25101); type: cell membranes, Membrane; settings: cho-k1; also: in other assays of this panel Not Active means under 50% inhibition at 10 µM
T2 sequence (P25101 whole entry): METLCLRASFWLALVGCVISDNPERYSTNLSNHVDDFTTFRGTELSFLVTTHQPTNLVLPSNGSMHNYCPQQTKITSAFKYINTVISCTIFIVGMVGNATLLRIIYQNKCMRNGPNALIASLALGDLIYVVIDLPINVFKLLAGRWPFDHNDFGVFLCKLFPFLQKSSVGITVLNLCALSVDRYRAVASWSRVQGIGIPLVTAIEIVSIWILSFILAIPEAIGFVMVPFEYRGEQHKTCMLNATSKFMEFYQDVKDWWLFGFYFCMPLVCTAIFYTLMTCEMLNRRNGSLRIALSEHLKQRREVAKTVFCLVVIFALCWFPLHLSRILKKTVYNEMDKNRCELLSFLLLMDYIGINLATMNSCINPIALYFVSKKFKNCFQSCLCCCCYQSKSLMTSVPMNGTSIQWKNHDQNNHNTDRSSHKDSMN

[5] = biological target: T3, Glucocorticoid receptor (Homo sapiens, UniProt P04150); settings: hela s3; also: in other assays of this panel Not Active means under 50% inhibition at 10 µM
T3 sequence (P04150 whole entry): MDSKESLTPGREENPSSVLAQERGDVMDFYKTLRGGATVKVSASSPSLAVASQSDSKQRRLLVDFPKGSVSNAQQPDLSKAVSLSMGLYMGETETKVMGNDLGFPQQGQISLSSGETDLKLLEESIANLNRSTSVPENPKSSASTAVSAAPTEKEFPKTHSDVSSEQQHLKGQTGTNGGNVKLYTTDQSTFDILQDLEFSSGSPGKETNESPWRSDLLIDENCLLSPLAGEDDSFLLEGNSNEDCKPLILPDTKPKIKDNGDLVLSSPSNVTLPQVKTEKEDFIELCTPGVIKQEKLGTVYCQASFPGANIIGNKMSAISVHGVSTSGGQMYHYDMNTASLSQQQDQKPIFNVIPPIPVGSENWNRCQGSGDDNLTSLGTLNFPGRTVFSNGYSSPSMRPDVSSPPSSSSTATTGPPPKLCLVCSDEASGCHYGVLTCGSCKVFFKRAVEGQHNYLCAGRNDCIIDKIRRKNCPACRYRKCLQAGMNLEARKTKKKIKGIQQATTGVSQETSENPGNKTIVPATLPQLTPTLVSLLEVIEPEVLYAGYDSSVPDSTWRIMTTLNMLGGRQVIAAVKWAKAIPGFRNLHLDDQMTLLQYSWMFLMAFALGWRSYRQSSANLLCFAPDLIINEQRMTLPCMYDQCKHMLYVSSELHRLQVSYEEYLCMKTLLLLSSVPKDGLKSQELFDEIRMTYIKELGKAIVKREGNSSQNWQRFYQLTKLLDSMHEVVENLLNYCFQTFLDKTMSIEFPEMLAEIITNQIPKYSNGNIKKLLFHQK

[6] = biological target: Kappa-type opioid receptor (Homo sapiens, UniProt P41145); assay: DRUGMATRIX: Opiate kappa (OP2, KOP) radioligand binding (ligand: [3H] Diprenorphine); type: cell membranes, HEK293, Membrane; settings: hek293; Not Active = under 50% inhibition at 10 µM
Sequence of Kappa-type opioid receptor (P41145 whole entry): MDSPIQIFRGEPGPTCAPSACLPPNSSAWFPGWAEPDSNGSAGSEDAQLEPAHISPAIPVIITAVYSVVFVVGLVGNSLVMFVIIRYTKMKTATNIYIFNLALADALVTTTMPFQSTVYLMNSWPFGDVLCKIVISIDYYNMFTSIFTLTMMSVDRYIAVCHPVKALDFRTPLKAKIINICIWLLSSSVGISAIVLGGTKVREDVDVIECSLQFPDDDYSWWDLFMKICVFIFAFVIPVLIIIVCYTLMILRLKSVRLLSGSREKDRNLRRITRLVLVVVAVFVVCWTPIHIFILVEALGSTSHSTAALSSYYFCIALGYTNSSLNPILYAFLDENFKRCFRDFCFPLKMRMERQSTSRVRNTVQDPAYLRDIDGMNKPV

Sequence of Beta-3 adrenergic receptor (P13945 whole entry): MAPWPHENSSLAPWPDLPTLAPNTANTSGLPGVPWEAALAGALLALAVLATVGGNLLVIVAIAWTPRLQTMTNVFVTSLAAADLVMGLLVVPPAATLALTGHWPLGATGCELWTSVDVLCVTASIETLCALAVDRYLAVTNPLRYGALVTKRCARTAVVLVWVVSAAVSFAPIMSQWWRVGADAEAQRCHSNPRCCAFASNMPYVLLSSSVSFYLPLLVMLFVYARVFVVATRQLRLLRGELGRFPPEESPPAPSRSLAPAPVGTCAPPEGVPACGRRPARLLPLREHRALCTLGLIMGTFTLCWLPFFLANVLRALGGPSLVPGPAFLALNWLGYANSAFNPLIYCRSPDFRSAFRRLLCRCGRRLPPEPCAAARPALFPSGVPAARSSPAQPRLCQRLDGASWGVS

SMILES	IC50 [1]	Ki [1]	IC50 [2]	IC50 [3]	IC50 [4]	IC50 [5]	IC50 [6]	IC50 ([1]; read-out: IC50)	Ki ([1]; read-out: Ki)
C#C[C@]1(OC(C)=O)CC[C@H]2[C@@H]3CCC4=C[C@@H](OC(C)=O)CC[C@@H]4[C@H]3CC[C@@]21C [ETHYNODIOL DIACETATE]	Not Active	Not Active	Not Active	Not Active	Not Active	Not Active	Not Active	–	–
CC(C)(C)NC(=O)[C@H]1CC[C@H]2[C@@H]3CC[C@H]4NC(=O)C=C[C@]4(C)[C@H]3CC[C@]12C [FINASTERIDE]	Not Active	Not Active	Not Active	Not Active	Not Active	Not Active	Not Active	–	–
COc1ccc2c3c1O[C@H]1C[C@@H](O)C=C[C@@]31CCN(C)C2 [GALANTAMINE]	Not Active	Not Active	Not Active	Not Active	Not Active	Not Active	Not Active	–	–
Nc1ccn([C@@H]2O[C@H](CO)[C@@H](O)C2(F)F)c(=O)n1 [GEMCITABINE]	Not Active	Not Active	Not Active	Not Active	Not Active	Not Active	Not Active	–	–
CC(C)=CCC/C(C)=C/CO [GERANIOL]	Not Active	Not Active	Not Active	Not Active	Not Active	Not Active	Not Active	–	–
N=C(N)NC(=O)Cc1c(Cl)cccc1Cl [GUANFACINE]	Not Active	Not Active	Not Active	Not Active	Not Active	Not Active	Not Active	–	–
Oc1c(Cl)cc(Cl)c(Cl)c1Cc1c(O)c(Cl)cc(Cl)c1Cl [HEXACHLOROPHENE]	Not Active	Not Active	Not Active	Not Active	Not Active	Not Active	Not Active	–	–
NNc1nncc2ccccc12 [HYDRALAZINE]	Not Active	Not Active	Not Active	Not Active	Not Active	Not Active	Not Active	–	–
COC1=C(OC)C(=O)C(CCCCCCCCCCO)=C(C)C1=O [IDEBENONE]	Not Active	Not Active	Not Active	Not Active	Not Active	Not Active	Not Active	–	–
CC(C)NNC(=O)c1ccncc1 [IPRONIAZID]	Not Active	Not Active	Not Active	Not Active	Not Active	Not Active	Not Active	–	–
Cc1c(OCC(F)(F)F)ccnc1C[S+]([O-])c1nc2ccccc2[nH]1 (configuration not stated) [LANSOPRAZOLE]	Not Active	Not Active	Not Active	Not Active	Not Active	Not Active	Not Active	–	–
O=c1cc(N2CCOCC2)oc2c(-c3ccccc3)cccc12 [LY-294002]	–	–	Not Active	Not Active	Not Active	Not Active	Not Active	21.4 µM	17.4 µM
COc1ccc2[nH]cc(CCNC(C)=O)c2c1 [MELATONIN]	Not Active	Not Active	Not Active	Not Active	Not Active	Not Active	Not Active	–	–
NC(=O)C[S+]([O-])C(c1ccccc1)c1ccccc1 (configuration not stated) [MODAFINIL]	Not Active	Not Active	Not Active	Not Active	Not Active	Not Active	Not Active	–	–
CCN(CC)CCOCCC1=CCC2CC1C2(C)C (configuration not stated) [MYRTECAINE]	Not Active	Not Active	Not Active	Not Active	Not Active	Not Active	Not Active	–	–
O=C(O)c1cccnc1Nc1cccc(C(F)(F)F)c1 [NIFLUMIC ACID]	Not Active	Not Active	Not Active	Not Active	Not Active	Not Active	Not Active	–	–
O=C(N/N=C/c1ccc([N+](=O)[O-])o1)c1cc([N+](=O)[O-])cc([N+](=O)[O-])c1O [NIFURSOL]	Not Active	Not Active	Not Active	Not Active	Not Active	Not Active	Not Active	–	–
COC(=O)Nc1nc2ccc(C(=O)c3cccs3)cc2[nH]1 [NOCODAZOLE]	Not Active	Not Active	Not Active	Not Active	Not Active	Not Active	Not Active	–	–
COC(=O)Nc1nc2ccc([S+]([O-])c3ccccc3)cc2[nH]1 (configuration not stated) [OXFENDAZOLE]	Not Active	Not Active	Not Active	Not Active	Not Active	Not Active	Not Active	–	–
CC(=O)O[C@H]1C(=O)[C@@]2(C)[C@H]([C@H](OC(=O)c3ccccc3)[C@]3(O)C[C@H](OC(=O)[C@H](O)[C@@H](NC(=O)c4ccccc4)c4ccccc4)C(C)=C1C3(C)C)[C@]1(OC(C)=O)CO[C@@H]1C[C@@H]2O [PACLITAXEL]	Not Active	Not Active	Not Active	Not Active	Not Active	Not Active	Not Active	–	–
CCn1cc(C(=O)O)c(=O)c2cnc(N3CCCC3)nc21 [PIROMIDIC ACID]	Not Active	Not Active	Not Active	Not Active	Not Active	Not Active	Not Active	–	–
C[n+]1ccccc1/C=N/O.[Cl-] [PRALIDOXIME CHLORIDE]	Not Active	Not Active	Not Active	Not Active	Not Active	Not Active	Not Active	–	–
COc1cc2nc(N3CCN(C(=O)c4ccco4)CC3)nc(N)c2cc1OC [PRAZOSIN]	Not Active	Not Active	Not Active	Not Active	Not Active	Not Active	Not Active	–	–
CCCN(CCC)S(=O)(=O)c1ccc(C(=O)O)cc1 [PROBENECID]	Not Active	Not Active	Not Active	Not Active	Not Active	Not Active	Not Active	–	–
CCCOc1ccc(C(=O)OCCN(CC)CC)cc1N [PROPARACAINE]	Not Active	Not Active	Not Active	Not Active	Not Active	Not Active	Not Active	–	–
Oc1cccc(O)c1O [PYROGALLOL]	Not Active	Not Active	Not Active	Not Active	Not Active	Not Active	Not Active	–	–
